Results as given in patent publication US20150135343A1, “GTP Sensors” (The Board of Regents of the University of Texas System, priority 2012, published 2015).

Tests used:
[1] = molecular target: T1, AF/FA GTP sensor (mAmetrine 1.1 and E. coli FeoB-cpYFP fusion) 11A variant 12, P12G, GNSGKTT (SEQ ID NO: 7) (Escherichia coli, UniProt P33650, P12G); test: GTP binding analysis, fluorescence titration, sensor 12
T1 construct: modified pET32, His-tag/NiNTA, E. coli BL21(DE3)
Method: (§1) Expression and purification: The FA/AF11A protein construct in a modified pET32 vector was used to transform BL21 (DE3) cells. Protein expression was induced with IPTG at a final concentration of 1 mM when the cell OD600 reached 0.6-0.8. Cells were grown for a further 12-14 hrs at 30° C. overnight. Cells were harvested in the morning, suspended in 50 mM TrisHCl, pH 8.3, 2 mM NaCl, 0.1% (v/v) Tween-20, 10 mM imidazole, 1 mM PMSF (lysis buffer), and lysed by sonication. Cell debris was removed by spinning at 17000 rpm for 30 minutes at 4° C. in a Sorvall RC-5C centrifuge equipped with a SS-34 rotor. The lysate, which is bright yellow, was applied to a NiNTA column equilibrated with the same lysis buffer. The loaded NiNTA column was washed with 5 volumes of the lysis buffer followed by 2-volumes of 50 mM TrisHCl, pH8.3, 400 mM NaCl, 50 mM imidazole. Then the protein was eluted in 2 volumes of 50 mM TrisHCl, pH 7.5, 100 mM NaCl, 300 mM imidazole. […] Protein concentration was determined with a BCA assay-kit from Invitrogen using bovine serum albumin for the calibration curve.
(§2) Fluorescent emission spectra of FA/AF11A were obtained at ˜1 μM in binding buffer and 3.0 ml in a quartz cuvette. […] Titrations with GTP, GDP, and ATP were carried out in a BioTeK plate reader on 96-well fluorescence plates from Whatman. […]

[2] = molecular target: T2, AF/FA GTP sensor (mAmetrine 1.1 and E. coli FeoB-cpYFP fusion) 11A variant 1214, P12G+S14A, GNAGKTT (SEQ ID NO: 8) (Escherichia coli, UniProt P33650, P12G/S14A); test: GTP binding analysis, fluorescence titration, sensor 1214
T2 construct: modified pET32, His-tag/NiNTA, E. coli BL21(DE3)
Method: as §1, §2

[3] = molecular target: T3, AF/FA GTP sensor (mAmetrine 1.1 and E. coli FeoB-cpYFP fusion) 11A variant Triple, GNAGKST (SEQ ID NO: 10) (Escherichia coli, UniProt P33650, P12G/S14A/T17S); test: GTP binding analysis, fluorescence titration, sensor Triple
T3 construct: modified pET32, His-tag/NiNTA, E. coli BL21(DE3)
Method: as §1, §2

[4] = molecular target: T4, AF/FA GTP sensor (mAmetrine 1.1 and E. coli FeoB-cpYFP fusion) 11A variant 1217, GNSGKST (SEQ ID NO: 9) (Escherichia coli, UniProt P33650, P12G/T17S); test: GTP binding analysis, fluorescence titration, sensor 1217
T4 construct: modified pET32, His-tag/NiNTA, E. coli BL21(DE3)
Method: as §1, §2

[5] = tested on: FeoB, G-protein domain of FeoB protein from Escherichia coli, SEQ ID NO:3; settings: cited from earlier work
[6] = tested on: HEK293 cells transfected with AF-Triple GTP sensor; test: MPA treatment of HEK293 cells expressing AF-Triple sensor, ratiometric imaging; format: cell-based; settings: 20 μM MPA
Method: (§3) AF/FA GTP sensors were subcloned into a pGW1 mammalian cell expression vector with a cytomegalovirus (CMV) promoter. HEK293 cells were transfected with the plasmid DNA using the GenJet (SignaGen) transfection reagent according to the manufacturer's instructions. Cells were allowed to grow for ˜24 hrs before being treated with mycophenolic acid (MPA), which inhibits GTP synthesis. Cells were imaged 20 hrs after drug administration. All cell cultures were carried out with DMEM containing 10% FBS and penicillin/streptomycin and grown at 37° C. in an atmosphere with 5% CO2. Passage number of cells was less than 30 for all experiments.
(§4) Imaging: Cells were imaged in a LabTek 8-chamber 1.5 coverslip-bottom culture-cum-imaging wells. Nikon Eclipse inverted epifluorescence microscope with Sedat Quad 89000 (Chroma Tech) filter along with Sutter instruments automated filter wheel controls was used for all imaging purposes. To ensure adequate signal, 2×2 binning was used. […]
(§5) Images were obtained individually without using the Nikon NIS software ratiometric collection mode. All image quantitative analyses were carried out with the public domain ImageJ (http://rsbweb.nih.gov/ij/) in conjunction with MS Excel and Origin 7. […] Then the ratios of the two intensities were calculated along with the relevant statistics.

[7] = tested on: HEK293 cells transfected with AF-AAA GTP sensor; test: MPA treatment of HEK293 cells expressing AF-AAA sensor, ratiometric imaging; format: cell-based; settings: 20 μM MPA, 20 hrs; GTP-insensitive control sensor
Method: as §3, §4, §5

HEK293 cells = test: In vivo validation: ratiometric imaging of transfected HEK293 cells with or without MPA; format: cell-based; settings: 20 μM MPA, HEK293 cells with AF-Triple sensor
Method: as §3, §4, §5

[8] = molecular target: T5, 5a5a-GTP sensor (E. coli FeoB-cpYFP fusion), 5a5a-WT, SEQ ID NO:14 (Escherichia coli, UniProt P33650, E42P/INS38[…]); test: Effective dissociation constant (Keff) determination, 5a5a-WT; format: binding; settings: FIG. 7 and FIG. 8
T5 construct: made in house
Excerpt: DNA encoding a cpYFP was inserted into the DNA encoding residues 35-40 of the FeoB G-protein domain (residues 1-260). Six insertion sites—spaced one codon apart—and 4 combinations of linker lengths between the N- and C-termini of the cpYFP and FeoB genes were used to construct 24 different fusion proteins. Nomenclature followed the form “FY1a-1a”, were the number designates the cpYFP insertion site, with “1” corresponding to insertion after FeoB residue 35 and “6” to insertion after residue 40, and where an “a” after the number indicates the presence of a ser-ala-gly or gly-thr linker at, respectively, the N- or C-terminus of the cpYFP.
The fluorescence from the GTP insensitive protein provided a way to normalize the GTP-sensitive fluorescent signal. […] The ratio of the fluorescence at these two excitation wavelengths is therefore internally normalized for changes in sensor expression levels. In addition, using a single FP provides certain advantages over a 2-FP sensor: (1.) A single FP sensor still generates a ratiometric signal because the binding of GTP causes a […] in fluorescence when excited at longer wavelengths (˜500 nm) but a […] in when excited at shorter (˜400 nm) wavelengths. […] (3.) The change in fluorescence ratio varies from 2-6 fold, depending on pH. […]

## Nc1nc2c(ncn2[C@@H]2O[C@H](COP(=O)(O)OP(=O)(O)O)[C@@H](O)[C@H]2O)c(=O)[nH]1 [GDP]
[1]
  Kd: 382 µM
[2]
  Kd: 525 µM
[3]
  Kd: ~1000 µM
[4]
  Kd: ~650 µM
[5]; 35° C., too fast to measure by stop-flow methods, estimated
  rate of GDP release: > 1000 s⁻¹

## Nc1nc2c(ncn2[C@@H]2O[C@H](COP(=O)(O)OP(=O)(O)OP(=O)(O)O)[C@@H](O)[C@H]2O)c(=O)[nH]1 [GTP, guanosine triphosphate]
[1]
  Kd: 85 µM
[2]
  Kd: 177 µM
[3]
  Kd: 517 µM
[4]
  Kd: 275 µM
[5]; 35° C.
  off-rate (GTP): 12 s⁻¹
  on-rate for GTP: 800000 M⁻¹ s⁻¹
[5]
  rate of GTP hydrolysis: 0.0015 s⁻¹
[5]; ratio
  rate of GTP hydrolysis, fold slower than the rate of GTP release: about 5000 fold

## COc1c(C)c2c(c(O)c1C/C=C(\C)CCC(=O)O)C(=O)OC2 [MPA, mycophenolic acid]
[6]; 20 hrs, p-value of 0.005
  effect of MPA treatment on ratiometric signal (distribution of ratio and average value): distinct difference in the distribution of the ratio as well as the average value
[6]; signal inversely related to GTP concentration
  GTP-sensitive signal (cpYFP green) after MPA treatment: brighter green hue than those untreated
[7]
  effect of MPA treatment on ratiometric signal: no effect
HEK293 cells
  cpYFP (green) signal of cells vs untreated: brighter green hue

## Nc1nc2c(ncn2[C@H]2C[C@H](O)[C@@H](COP(=O)(O)OP(=O)(O)OP(=O)(O)O)O2)c(=O)[nH]1 [dGTP]
[8]
  binding of dGTP relative to GTP: as well as, if not slightly better than GTP itself
